# Measurements from US10993938B2 (priority 2017, dated 2021).
# Key:
# [1] = test system: EV71; assay: Virus inhibition activity assay based on cytopathic effects (neutral red), EV71; type: cell-based; details: Enterovirus A, EV71, read-out: EV71 (EC50) μM
# [2] = test system: H7N9; assay: microbe, parasite or virus in culture; type: cell-based; details: Influenza A virus, H7N9, read-out: H7N9 (EC50) μM
# [3] = 50% toxic concentration on cell (TC50), neutral red
# [4] = test system: HSV; assay: Virus inhibition activity assay based on cytopathic effects (neutral red), HSV; type: cell-based; details: read-out: HSV (EC50) μM
# [5] = test system: HIV; assay: microbe, parasite or virus in culture; type: cell-based; details: Human immunodeficiency virus 1, read-out: HIV (EC50) μM
# [6] = test system: RSV; assay: Virus inhibition activity assay based on cytopathic effects (neutral red), RSV; type: cell-based; details: human respiratory syncytial virus, read-out: RSV (EC50) μM
# [7] = test system: CoxB3; assay: Virus inhibition activity assay based on cytopathic effects (neutral red), CoxB3; type: cell-based; details: read-out: CoxB3 (EC50) μM
# [8] = test system: H1N1; assay: microbe, parasite or virus in culture; type: cell-based; details: Influenza A virus, H1N1, read-out: H1N1 (EC50) μM
structure (smiles),measurement,setting,value
COC1C(=O)N(Cc2ccccc2)c2ccc(Cl)cc2C1(O)c1ccccc1 (centres unmarked) [Example 29],EC50,[1],5 to 50 µM
same,EC50,[2],0.05 to 5 µM
same,CC50,[3],50 to 100 µM
same,EC50,[4],50 to 120 µM
same,EC50,[5],0.05 to 5 µM
same,EC50,[6],0.05 to 5 µM
same,EC50,[7],0.05 to 5 µM
same,EC50,[8],5 to 50 µM
